The target of one experiment is T1, CXCR1 (Homo sapiens, UniProt P25024).
T1 construct: endogenous in cells; host or cells: human polymorphonucleate leukocytes (PMNs) isolated from blood of healthy volunteers
T1 sequence (P25024 1-350): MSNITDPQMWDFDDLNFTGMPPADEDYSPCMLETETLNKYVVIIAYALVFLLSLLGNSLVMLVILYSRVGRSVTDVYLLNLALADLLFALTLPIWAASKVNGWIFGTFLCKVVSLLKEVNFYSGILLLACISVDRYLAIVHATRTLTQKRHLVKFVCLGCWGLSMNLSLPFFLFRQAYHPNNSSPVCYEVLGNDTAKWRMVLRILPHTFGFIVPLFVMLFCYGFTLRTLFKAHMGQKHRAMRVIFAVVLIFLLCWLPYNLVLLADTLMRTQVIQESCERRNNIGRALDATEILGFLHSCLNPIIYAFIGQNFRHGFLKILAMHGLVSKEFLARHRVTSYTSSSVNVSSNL
In words: IL-8 induced PMN chemotaxis (CXCR1). Type of experiment: cell-based. Conditions: for inhibition at 0.01 µM: compound c = 10^−8 M, IL-8 induced human PMN chemotaxis; for IL-8 inhibitory activity: result in words, IL-8 induced chemotaxis.

The target in the next experiment is T2, CXCR2 (Homo sapiens, UniProt P25025).
T2 construct: endogenous in cells; host or cells: human polymorphonucleate leukocytes (PMNs) isolated from blood of healthy volunteers
T2 sequence (P25025 1-360): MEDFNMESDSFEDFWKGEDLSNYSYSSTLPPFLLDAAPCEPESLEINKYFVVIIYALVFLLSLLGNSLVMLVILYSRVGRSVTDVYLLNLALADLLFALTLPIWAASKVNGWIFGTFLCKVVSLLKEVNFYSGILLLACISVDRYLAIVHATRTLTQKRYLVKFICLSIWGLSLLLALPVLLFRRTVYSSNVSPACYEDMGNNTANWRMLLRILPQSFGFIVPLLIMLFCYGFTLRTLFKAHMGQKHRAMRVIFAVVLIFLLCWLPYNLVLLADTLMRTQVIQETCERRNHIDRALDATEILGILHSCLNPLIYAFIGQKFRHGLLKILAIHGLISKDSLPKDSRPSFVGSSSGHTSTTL
In words: GRO-α induced PMN chemotaxis (CXCR2). The format is cell-based. Conditions: compound c = 10^−8 M. On the procedure: The compounds of the invention of formula I were evaluated in vitro for their ability to inhibit chemotaxis of polymorphonucleate leukocytes (hereinafter referred to as PMNs) and monocytes induced by the fractions of IL-8 and GRO-α. For this purpose, in order to isolate the PMNs from heparinized human blood, taken from healthy adult volunteers, mononucleates were removed by means of sedimentation on dextran (according to the procedure disclosed by W. J. Ming et al., J. Immunol., 138, 1469, 1987) and red blood cells by a hypotonic solution. The cell viability was calculated by exclusion with Trypan blue, whilst the ratio of the circulating polymorphonucleates was estimated on the cytocentrifugate after staining with Diff Quick.
During the chemotaxis assay (according to W. Falket et al., J. Immunol. Methods, 33, 239, 1980) PVP-free filters with a porosity of 5 μm and microchambers suitable for replication were used.
The compounds of the invention of formula (I) and (Ia) were evaluated at a concentration ranging between 10^−6 and 10^−10 M; for this purpose they were added, at the same concentration, both to the lower pores and the upper pores of the microchamber. Evaluation of the ability of the compounds of the invention of formula I to inhibit IL-8-induced chemotaxis of human monocytes was carried out according to the method disclosed by Van Damme J. et al. (Eur. J. Immunol., 19, 2367, 1989).
The biological activity of compounds showing high potency either as inhibitors of IL-8 induced PMN chemotaxis (CXCR1) or as dual inhibitors of IL-8 and GRO-α induced PMN chemotaxis (CXCR1/CXCR2) is reported in Table 1.

`CC(C)C(=O)c1ccc(CC(=O)O)n1C` [Example 12, (5-isobutyryl-1-methyl-1H-pyrrol-2-yl)acetic acid]: the values for the inhibition at 0.01 µM on CXCR1 and against CXCR2 were 58 ± 11% and 65 ± 11%, respectively.

Turning to `O=C(O)Cc1cccc(C(=O)c2ccccc2)c1` [ketofenac, 2-[3-benzoylphenyl]acetic acid, reference compound], the IL-8 inhibitory activity entry on CXCR1 is “do not exert any IL-8 inhibitory activity”.

Take `Cc1c(CC(=O)O)cccc1C(C)C` [Example 2, (3-isopropyl-2-methylphenyl)acetic acid]: the inhibition at 0.01 µM amounted to 62 ± 8% on CXCR1 and 5 ± 10% on CXCR2.

Turning to `CC(=O)c1ccc(CC(=O)NS(C)(=O)=O)n1C` [Example 41, (5-acetyl-1-methyl-1H-pyrrol-2-yl)acetyl methanesulfonamide], the inhibition at 0.01 µM at CXCR1 is 50 ± 10%; at CXCR2, 46 ± 14%.

Consider `CC(C)Cc1ccc(CC(=O)O)cc1` [ibufenac, 2-[4-isobutylphenyl]acetic acid, reference compound], for which the IL-8 inhibitory activity entry on CXCR1 is recorded as “do not exert any IL-8 inhibitory activity”.

Take `Cc1cc(CC(C)C)ccc1CC(=O)NS(C)(=O)=O` [Example 42, (4-isobutyl-2-methylphenyl)acetyl methanesulfonamide]: the results for the inhibition at 0.01 µM on CXCR1 and against CXCR2 were 67 ± 14% and 0%, respectively.

Regarding `Cc1cc(NS(=O)(=O)C(F)(F)F)ccc1CC(=O)NS(C)(=O)=O` [Example 43, {2-methyl-4-[(trifluoromethanesulfonyl)amino]phenyl}acetyl methanesulfonamide], the figures for the inhibition at 0.01 µM at CXCR1 and on CXCR2 were 60 ± 7% and 52 ± 5%, respectively.

For the compound `CCC(=O)c1cccc(CC(=O)O)c1Cl` [Example 3, (2-chloro-3-propionylphenyl)acetic acid], the inhibition at 0.01 µM against CXCR1 was 67 ± 14%; against CXCR2, 27 ± 8%.

For `CC(=O)c1ccc(CC(N)=O)n1C` [Example 19, (5-acetyl-1-methyl-1H-pyrrol-2-yl)acetamide], the inhibition at 0.01 µM on CXCR1 stood at 54 ± 10%; at CXCR2, 44 ± 9%.

As for `Cc1cc(CC(C)C)ccc1CC(=O)O` [Example 4, (4-isobutyl-2-methylphenyl)acetic acid], the inhibition at 0.01 µM against CXCR1 was 60 ± 10%; against CXCR2, 4 ± 8%.

On to `CC(=O)c1ccc(CC(=O)O)n1C` [Example 11, (5-acetyl-1-methyl-1H-pyrrol-2-yl)acetic acid], for which the inhibition at 0.01 µM against CXCR1 came out at 60 ± 7%; against CXCR2, 65 ± 5%.

The term inhibition denotes the drop in the measured response relative to a control, in per cent.
